Where two headings read alike, the source gives them in different places. Where a SMILES comes first, the peptide text is derived from it. Bridges are numbered along the chain shown (N, C = ends).
Key:
SSTR2 [1] = target: T1, SSTR2 (Homo sapiens, UniProt P30874); parameters: method as in earlier work; settings: literature values marked *; ref 1 (supplementary references); cited from earlier work
T1 construct: host or cells: CHO-K1
Text: (§1) The peptide backbone is shown in gold and the N- and C-terminus residues, as well as the disulfide bond are labelled. Representative aromatic clusters. All side chains are shown to facilitate structural analysis. Side chains participating in the interactions are specifically labelled. c Schematic representation of Cortistatin-14 sequence. […] 1-2. […] 3-1. […] 3-1. […] 3-1.

SSTR5 [2] = target: T2, SSTR5 (Homo sapiens, UniProt P35346); parameters: method as in earlier work; settings: literature values marked *; ref 1 (supplementary references); cited from earlier work
T2 construct: host or cells: CHO-K1
T2 sequence (P35346 whole entry): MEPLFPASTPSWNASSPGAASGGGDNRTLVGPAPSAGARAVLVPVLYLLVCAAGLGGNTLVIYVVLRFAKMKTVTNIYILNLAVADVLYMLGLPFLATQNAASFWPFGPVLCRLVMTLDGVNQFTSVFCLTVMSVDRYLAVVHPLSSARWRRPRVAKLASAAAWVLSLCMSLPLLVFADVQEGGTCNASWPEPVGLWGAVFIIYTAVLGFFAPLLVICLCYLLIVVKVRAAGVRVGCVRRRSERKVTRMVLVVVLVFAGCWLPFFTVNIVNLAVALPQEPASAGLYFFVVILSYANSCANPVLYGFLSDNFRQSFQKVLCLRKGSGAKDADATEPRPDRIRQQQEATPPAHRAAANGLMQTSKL
Text: as §1

SSTR3 [3] = target: T3, SSTR3 (Homo sapiens, UniProt P32745); parameters: method as in earlier work; settings: literature values marked *; ref 1 (supplementary references); cited from earlier work
T3 construct: host or cells: CHO-K1
T3 sequence (P32745 whole entry): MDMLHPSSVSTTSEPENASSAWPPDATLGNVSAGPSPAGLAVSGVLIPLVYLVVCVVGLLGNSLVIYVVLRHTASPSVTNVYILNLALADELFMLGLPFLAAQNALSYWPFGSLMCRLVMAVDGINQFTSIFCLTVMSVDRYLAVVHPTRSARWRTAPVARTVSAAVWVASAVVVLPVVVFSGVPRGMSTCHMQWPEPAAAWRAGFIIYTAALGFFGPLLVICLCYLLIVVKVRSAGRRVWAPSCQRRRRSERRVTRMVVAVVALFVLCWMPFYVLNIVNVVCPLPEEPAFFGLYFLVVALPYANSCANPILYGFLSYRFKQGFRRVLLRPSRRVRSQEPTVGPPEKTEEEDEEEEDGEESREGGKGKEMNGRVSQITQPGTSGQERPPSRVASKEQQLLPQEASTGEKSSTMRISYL
Text: as §1

SSTR4 = target: T4, SSTR4 (Homo sapiens, UniProt P31391); parameters: method as in earlier work; settings: literature values marked *; ref 1 (supplementary references); cited from earlier work
T4 construct: host or cells: CHO-K1
T4 sequence (P31391 whole entry): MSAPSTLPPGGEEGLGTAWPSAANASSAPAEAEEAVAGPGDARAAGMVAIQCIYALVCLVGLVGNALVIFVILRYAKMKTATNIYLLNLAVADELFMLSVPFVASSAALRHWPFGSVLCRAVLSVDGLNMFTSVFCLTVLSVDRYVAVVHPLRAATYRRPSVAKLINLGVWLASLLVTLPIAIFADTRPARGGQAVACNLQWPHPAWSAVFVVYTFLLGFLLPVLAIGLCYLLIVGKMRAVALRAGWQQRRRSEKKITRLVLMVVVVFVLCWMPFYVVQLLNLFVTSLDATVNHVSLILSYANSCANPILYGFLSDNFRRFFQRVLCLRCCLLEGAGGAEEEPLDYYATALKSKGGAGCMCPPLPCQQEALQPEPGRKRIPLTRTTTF
Text: as §1

[4] = system: colonic mucosa of mice with TNBS-induced acute colitis; test: Cytokines in colonic mucosa, TNBS-induced acute colitis; type: in vivo, mouse; settings: Figure 5c, mean of 8 mice
Experimental: Control mice received 50% ethanol alone.
Protein extracts were isolated by homogenisation of colonic segments (50 mg tissue/mL) in 50 mM Tris-HCl, pH 7.4, with 0.5 mM DTT, and 10 μg/mL of a cocktail of proteinase inhibitors (all from Sigma-Aldrich). Samples were centrifuged at 30,000×g for 20 min and stored at –80 °C until cytokine determination.

[5] = system: serum of mice with TNBS-induced acute colitis; test: Serum cytokines in TNBS-induced acute colitis; type: in vivo, mouse
Text: In both TNBS-induced acute and chronic colitis, animals were daily monitored for the appearance of diarrhea, body weight loss and survival. At different time points, colitis signs were scored in base of stool consistency and rectal bleeding by two blinded observers using the following scale: 0 = normal stool appearance, 1 = slight decrease in stool consistency, 2 = moderate decrease in stool consistency, 3 = moderate decrease in stool consistency and presence of blood in stools, 4 = severe watery diarrhea and moderate/severe bleeding in stools. […] After macroscopic examination, various colonic segments were immediately frozen in liquid nitrogen for protein extraction and cytokine determination or for histopathological analysis as described below. In some animals, MLNs were isolated 10 days after TNBS injection and assayed for proliferation, cytokine production and flow cytometric analysis as described below. Moreover, sera were collected by cardiac puncture at day 10 after TNBS injection and the levels of cytokines and anti-TNBS IgG were determined by specific ELISAs as described below. […]
Supplementary Table 3. Serum cytokines in TNBS-in du ced acu t e col i ti s.
Treatments were administered in a curative regime as described in Figure 4 and sera were collected 10
days after TNBS infusion. n=8 mice/group. Data are mean ± SEM. […]

in vitro = type: cell-based; settings: mouse, peritoneal macrophages stimulated with LPS, Viability of Macrophages (%, vs. Initiation of culture)
Experimental: Mouse peritoneal macrophages were cultured in medium (unstimulated) or stimulated with LPS (1 μg/ml) in the absence or presence of Analogue 5 (100 nM). Mouse spleen cells were cultured in medium alone (unstimulated) or stimulated with anti -CD3 a ntib odies (2 μg/ml) in the absence or presence of analogue 5 (100 nM). After 24 hours (macrophages) or 48 hours (spleen cells) of culture, cell viability and apoptosis were determined. The percentage of cell viability relative to the initiation of cell c ult ure was determined using AlamarBlue assay (Thermo Fisher Scientific). The percentage of apoptotic cells was determined by flow cytometric analysis of Annexin Vpositive 7-amino-actinomycin Dnegative cell population (R&D Systems). Data are the mean ± SEM of 5 independe nt cultures performed in duplicates. […]
Treatments were administered in a curative regime as described in Figure 4 and sera were collected 10 days after TNBS infusion. n=8 mice/group. […] Statistical differences between groups were calculated usi ng unpa ired two -tailed Student’s t-test. ****p<0.0001 versus TNBS+saline […]
Total RNA was isolated from colon sections obtained at day 10 after TNBS injection following the manufacturer’s protocol (Tripure, Roche). […] SYBER green quantitative PCR (SensiFast Sybr No-Rox mix, Bioline) was performed as described in the […]

SSTR2 [6] = target: T1, SSTR2; test: Radio-ligand binding assay, SSTR2
Experimental: (§2) Graphical and tabular representation of the percentage inhibition of specific binding, as IC50 (nM) binding values for the analogues against the five SSTR1-SSTR5 is represented in Supplementary Fig. 1b and Supplementary Table 1. […] IC50 values were determined by a non-linear, least squares regression analysis using Prism 9 (GraphPad Software, USA), using the Dose-response inhibition (three-parameters) model. […]
(§3) (SSTR1-SSTR5), using a Radio-ligand Binding Assay (Supplementary Figure 1b). Cells were incubated in HEPES buffer pH 7.4 with the new analogues of Cortistatin at 10 different concentrations in a range […]
(§4) specifically bound (performed at Eurofins Panlabs, Inc.). The radioactivity obtained in the absence of SST14 is considered as total binding and that obtained in the presence of 1 µM of SST14 is considered as nonspecific binding. Specific binding was considered as the difference between total and nonspecific.
(§5) Biochemical assay results are presented as the percent inhibition of specific bindin g (% inhib ition) as a […]
(§6) part of each binding assay with the five (SSTR1 -SS T R5 ) . I C50 values were determined by a non-linear, least squares regression analysis using Prism 9 (GraphPad Software, USA), using the Dose -response inhibit ion (t hree-parameters) model.

SSTR5 [7] = target: T2, SSTR5; test: Radio-ligand binding assay, SSTR5
Experimental: as §2, §3, §4, §5, §6

SSTR3 [8] = target: T3, SSTR3; test: Radio-ligand binding assay, SSTR3
Experimental: as §2, §3, §4, §5, §6

[9] = In vitro stability of peptides in human plasma (half-life in serum); settings: serum half-life of analogue 5 vs native CST
Experimental: The peptides were dissolved in water at a concentration of 6 mg/mL and warmed up to 37 °C. Human plasma was obtained as a lyophilised solid (K3 EDTA Plasma, BBI solutions, code S112-1), reconstituted with sterile 0.9% sodium chloride solution and stored at −20 °C. Human plasma was thawed and incubated at 37 °C before use.
The peptides were incubated in 90% human plasma at 37 °C for different times and then precipitated with two volume equivalents of methanol. […] The supernatant was filtered with a 0.45-µm PVDF filter and analysed in triplicate by RP-HPLC using an isocratic method (eluent A = 0.1%TFA in water; eluent B = 0.07%TFA in ACN, column = Kromasil C8, 100 Å, 5 µm, 250 × 4.6 mm, flow = 1 mL/min, wavelength = 220 nm, injection volume = 20 µL, Tª = 60 °C). The disappearance of the peptide was determined in relation to the area of the initial time for calculating its half-life.

SSTR1 = target: T5, SSTR1 (Homo sapiens, UniProt P30872); test: Radio-ligand binding assay, SSTR1
T5 construct: host or cells: CHO-K1
T5 sequence (P30872 whole entry): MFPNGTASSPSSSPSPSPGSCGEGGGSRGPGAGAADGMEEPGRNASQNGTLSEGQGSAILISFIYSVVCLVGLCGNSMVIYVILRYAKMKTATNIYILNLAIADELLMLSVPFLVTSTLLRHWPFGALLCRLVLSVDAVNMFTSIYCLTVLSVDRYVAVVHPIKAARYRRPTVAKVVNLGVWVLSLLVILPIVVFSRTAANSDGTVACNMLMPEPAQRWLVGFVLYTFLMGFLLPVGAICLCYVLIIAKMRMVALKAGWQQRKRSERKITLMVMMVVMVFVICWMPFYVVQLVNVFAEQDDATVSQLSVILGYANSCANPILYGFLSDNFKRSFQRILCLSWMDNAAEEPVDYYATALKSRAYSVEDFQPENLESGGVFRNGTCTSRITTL
Experimental: as §2, §3, §4, §5, §6

[10] = system: LPS-activated mouse Raw 264 macrophages; test: Inflammatory response of LPS-activated RAW 264 macrophages; type: cell-based; settings: 100 nM (Supplementary Fig. 2c)
Experimental: Inflammatory response was assayed in vitro on the mouse macrophagic cell line RAW 264 macrophages and mouse primary peritoneal macrophages. RAW 264 cells (ATTC, TIB-71) were grown at 5 × 10^5 cells/mL in complete DMEM medium (DMEM supplemented with 100 U/mL penicillin/streptomycin, 2 mM L-glutamine, 50 μM 2-mercaptoethanol and 10% heat-inactivated fetal calf serum) until reaching a confluence of 80% and then incubated in the absence (used as baseline reference) or presence of LPS (1 μg/mL, from E. coli serotype 055: B5, Sigma). Cortistatin (mouse/rat CST-14, Bachem) and its synthesised analogues were added at a concentration of 100 nM at the beginning of culture. After 24 h of culture, supernatants were harvested. Levels of the inflammatory cytokines TNFα and IL6 were determined by a specific sandwich ELISA by using capture/biotinylated detection monoclonal antibodies from BD Pharmingen (for TNFα: capture antibody clone G281-2626, cat # 551225; biotin antibody clone MP6-XT3, cat # 554415; for IL6: capture antibody clone MP5-20F3, cat # 554398; biotin MP5-32C1, cat # 554402) according to the manufacturer’s recommendations. Nitric oxide content in culture supernatants was determined by quantifying nitrite levels using the Griess assay.

[11] = system: anti-CD3-activated mouse spleen cells; test: Proliferation and Th1-type cytokines of anti-CD3-activated spleen cells; type: cell-based; settings: 100 nM (Supplementary Fig. 2d)
Experimental: Spleen cells were isolated from C57Bl/6J mice (male, 8-weeks-old, Charles River) by mechanical cell dissociation, filtration using a nylon filter and red cell lysing. The spleen cells were incubated in complete DMEM medium at a density of 10^6 cells/mL for 2 h. Nonadherent cells (consisting in 80% of T cells) were cultured in complete DMEM medium and stimulated with anti-mouse CD3e antibody (2 μg/mL, clone 145-2C11, BD Pharmingen, cat #: 553058) in the presence of different Cortistatin analogues (100 nM). After 48 h, culture supernatants were collected and the levels of cytokines (IFNγ and IL2) were determined by a specific sandwich ELISA by using capture/biotinylated detection monoclonal antibodies from BD Pharmingen (for IFNγ: capture antibody clone XMG1.2, cat # 554408; biotin antibody clone R4-6A2, cat # 551506; for IL2: capture antibody clone S4B6, cat # 554375; biotin antibody clone JES6-5H4, cat # 554426) according to the manufacturer’s recommendations. To determine the effect of different analogues of Cortistatin in proliferation, the cells were cultured for 72 h, 0.5 μCi (0.0185 MBq)/well of [^3H]-thymidine was added for the last 8 h of culture, harvested the membranes and [^3H]-thymidine incorporated was quantified by scintillation counting.

[12] = TNBS acute colitis, curative regime, sera 10 days after TNBS, mean ± SEM, n=8
[13] = acute colitis induced by TNBS, serum, mean of 8 mice

T1 sequence (P30874 whole entry): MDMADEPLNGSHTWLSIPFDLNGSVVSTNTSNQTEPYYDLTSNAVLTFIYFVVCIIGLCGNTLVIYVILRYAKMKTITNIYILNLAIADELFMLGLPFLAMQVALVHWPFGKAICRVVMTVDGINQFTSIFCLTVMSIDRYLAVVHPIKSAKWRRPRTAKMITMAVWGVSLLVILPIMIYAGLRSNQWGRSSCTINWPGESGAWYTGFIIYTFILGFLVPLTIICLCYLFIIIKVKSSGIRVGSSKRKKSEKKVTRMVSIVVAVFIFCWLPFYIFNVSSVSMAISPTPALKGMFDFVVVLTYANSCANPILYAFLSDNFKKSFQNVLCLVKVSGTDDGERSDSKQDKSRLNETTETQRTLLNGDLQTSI

C[C@@H](O)[C@@H]1NC(=O)[C@H](CCCCN)NC(=O)[C@H](Cc2c[nH]c3ccccc23)NC(=O)[C@H](Cc2ccccc2)NC(=O)[C@H](Cc2ccccc2)NC(=O)[C@H](CC(N)=O)NC(=O)[C@H](CCCCN)NC(=O)[C@@H](NC(=O)[C@@H]2CCCN2)CSSC[C@@H](C(=O)N[C@@H](CCCCN)C(=O)O)NC(=O)[C@H](CO)NC(=O)[C@H](CO)NC(=O)[C@H](Cc2ccccc2)NC1=O [CST] (H-PCKNFFWKTFSSCK-OH; disulfide 2-13)
IC50 (SSTR2 [1]): 0.09 nM
IC50 (SSTR5 [2]): 0.3 nM
IC50 (SSTR3 [3]): 0.3 nM
IC50 (SSTR4): 0.2 nM

Nc1ccc(O)c(C(=O)O)c1 [Mesalazine, 5-aminosalycilic acid]
IL10 (ng/g colon) [4]: 3.75 ng/g colon
Serum IL6 [5, 12]: 773 ± 46 pg/mL
Serum IL17 [5, 12]: 233 ± 15 pg/mL
IL6, serum level [5, 13]: 0.77 ng/mL
TNFa, serum level [5, 13]: 0.78 ng/mL
IL17, serum level ([5]; acute colitis induced by TNBS, serum, mouse 1 of the group): 0.024 ng/mL
IL17, serum level ([5]; acute colitis induced by TNBS, serum, mouse 2 of the group): 0.024 ng/mL
IL17, serum level ([5]; acute colitis induced by TNBS, serum, mouse 3 of the group): 0.029 ng/mL
IL17, serum level ([5]; acute colitis induced by TNBS, serum, mouse 4 of the group): 0.017 ng/mL
IL17, serum level ([5]; acute colitis induced by TNBS, serum, mouse 5 of the group): 0.019 ng/mL
IL17, serum level ([5]; acute colitis induced by TNBS, serum, mouse 6 of the group): 0.025 ng/mL
IL17, serum level ([5]; acute colitis induced by TNBS, serum, mouse 7 of the group): 0.021 ng/mL
IL17, serum level ([5]; acute colitis induced by TNBS, serum, mouse 8 of the group): 0.028 ng/mL

CCCCCCCC(=O)N1CCC[C@H]1C(=O)N[C@H]1CSSC[C@@H](C(=O)N[C@@H](CCCCN)C(=O)O)NC(=O)[C@H](CO)NC(=O)[C@H]([C@@H](C)O)NC(=O)[C@H](Cc2ccccc2)NC(=O)[C@H]([C@@H](C)O)NC(=O)[C@H](CCCCN)NC(=O)[C@@H](Cc2c[nH]c3ccccc23)NC(=O)[C@H](Cc2ccccc2)NC(=O)[C@H](Cc2c(C)cc(C)cc2C)NC(=O)[C@H](CC(N)=O)NC(=O)[C@H](CCCCN)NC1=O [A5]
viability at 24 h, 0.1 µM (in vitro): 93.2%
IC50 (SSTR2 [6]): 35 nM
IC50 (SSTR5 [7]): 1.12 nM
IC50 (SSTR3 [8]): 5.1 nM
increase in stability with respect to the native neuropeptide [9]: 10 fold
IC50 (SSTR1): 47.3 nM

Cc1cc(C)c(C[C@@H]2NC(=O)[C@H](CC(N)=O)NC(=O)[C@H](CCCCN)NC(=O)[C@@H](NC(=O)[C@@H]3CCCN3)CSSC[C@@H](C(=O)N[C@@H](CCCCN)C(=O)O)NC(=O)[C@H](CO)NC(=O)[C@H]([C@@H](C)O)NC(=O)[C@H](Cc3ccccc3)NC(=O)[C@H]([C@@H](C)O)NC(=O)[C@H](CCCCN)NC(=O)[C@@H](Cc3c[nH]c4ccccc34)NC(=O)[C@H](Cc3ccccc3)NC2=O)c(C)c1 [A4, [L-Msa5_D-Trp7_L-Thr11]-CST 14]
effect on the inflammatory responses in activated macrophages [10]: no significant effects
effect on the inflammatory responses in activated lymphocytes [11]: no significant effects
IC50 (SSTR2 [6]): 9.8 nM
IC50 (SSTR5 [7]): 4 nM
IC50 (SSTR3 [8]): 1.8 nM
IC50 (SSTR1): 14.7 nM
